{
  "source": "paper PMC9112550",
  "about": "“Optimization of the antimicrobial peptide Bac7 by deep mutational scanning” (BMC Biology, 2022)",
  "key": {"bacteria": {"test_system": "bacteria", "details": "cited from earlier work", "source_text": "One of the most intensively researched proline-rich AMPs is bactenecin-7 (Bac7). It is a 60 amino acid long linear peptide that was first isolated from bovine neutrophils. […] Measuring the antimicrobial activity of heavily mutated variants was valuable to determine the sequence-activity relationship of Bac7_1-23 because (i) the activity of specific amino acid res ... || Bac7PS excelled over Bac7_1-23 in terms of antimicrobial activity against clinical isolates including MDR bacteria and a decreased dependency on the SbmA transporter (Fig. 4a; Table 2). […] We mainly attribute the activity gain to the increased ability to penetrate membranes, which was accompanied by a slight increase in membrane damage at higher concentrations compared to Bac7_1-23 (Fig. 4b; Additional file 1 ..."}, "bacterial membranes": {"test_system": "bacterial membranes", "details": "cited from earlier work", "experimental": "We next investigated whether an increased propensity to damage membranes could be the reason for the improved antimicrobial activity of Bac7PS. Membrane damage is the most frequent way AMPs kill bacteria and is often considered the reason for high toxicity against eukaryotic cells. […] Consequently, we investigated if Bac7PS had acquired a tendency to damage membranes, which could imply a greater risk for systemic human applications. Cell damage was assessed by measuring leakage of green fluorescent protein (GFP), ex ..."}, "E. coli ATCC 25922": {"test_system": "E. coli ATCC 25922", "type": "cell-based", "details": "E. coli ATCC 25922 quality control strain; MHB II; 18 h, 37°C; averaged (n>3)", "experimental": "(§1) Bacterial cells were grown in cation-adjusted Mueller Hinton Broth (MHB II) overnight to stationary phase. The cultures were then supplemented with 200 g l^−1 glycerol, aliquoted, and frozen at −80°C. […] The purified peptides were thawed and the concentration was determined by RP-HPLC as described before. The peptides were diluted with sterile water to 4-fold the desired assays starting concentration and to a final volume of 50 μl. […] The first well of each MIC dilution series was filled with 20 μl of 2-fold concentrated MHB II, wells 2–11 with 20 μl of MHB II, and well 12 with 40 μl MHB II (sterility control). Next, 20 μl of the peptide dilution was added to the first well, mixed, and a log2-serial dilution was performed from wells 1 to 10 (20 μl transfer volume). Well 11 served as growth control (i.e., no peptide added). In the last step, 20 μl of the bacterial cell suspension was added to wells 1–11 either using the pipetting robot (E. coli TOP10, BW25113, BW25113 ΔsbmA, and ATCC 25922) or by manual pipetting (E. coli clinical isolates). The plates were sealed airtight and incubated for 18 h without shaking at 37°C before reading the OD using an Infinite 200 PRO plate reader (Tecan, Männedorf, CH). The MIC value corresponded to the concentration at which no growth of the bacterial strain was observed (< 5% of the OD value of the growth control) and was evaluated using a custom-written script in the programming language R. MIC values of E. coli TOP10, BW25113, BW25113 ΔsbmA, and ATCC 25922 were determined at least in biological triplicates. All MIC experiments were determined in technical replicate."}, "E. coli BW25113 ΔsbmA": {"test_system": "E. coli BW25113 ΔsbmA", "type": "cell-based", "experimental": "as §1"}, "E. coli BW25113": {"test_system": "E. coli BW25113", "type": "cell-based", "details": "E. coli BW25113 parental strain; MHB II; 18 h, 37°C; averaged (n>3)", "experimental": "as §1"}, "E. coli TOP10 [1]": {"test_system": "E. coli TOP10", "type": "cell-based", "details": "MHB II, 18 h, 37°C, averaged (n>3), <5% of OD of growth control", "experimental": "as §1"}, "[2]": {"test_system": "E. coli clinical isolates", "type": "cell-based", "details": "clinical isolates of E. coli (n=45) including MDR (ESBL, CRE); MHB II; 18 h, 37°C", "experimental": "as §1"}, "E. coli TOP10 [3]": {"test_system": "E. coli TOP10", "assay": "Membrane damage assay in MHB II (GFP loss, PI uptake)", "type": "cell-based", "details": "at the MIC up to 8-fold higher concentrations, n = 3"}, "mouse red blood cells": {"test_system": "mouse red blood cells", "assay": "Hemolysis assay", "type": "cell-based", "details": "1 h, 37°C, DPBS, relative to Triton-X100 lysis control, triplicates", "experimental": "Mouse blood was obtained from the ETH Phenomics Center. The erythrocytes were isolated by centrifugation at 500 × g for 10 min and removal of the blood plasma. The cells were washed three times by gently resuspending them in an equal volume of DPBS followed by centrifugation. After the last resuspension, the cells were diluted 1:50 in DPBS. For the hemolysis assay, a log2-serial dilution of each peptide was prepared as described for the MIC but using DPBS and 96-well plates (U-bottom, PP, 650201, Greiner) with a final volume of 100 μl. As lysis control, 2.5% Triton-X100 in DPBS was used in well 10, well 11 served as non-treated control (no peptide added), and well 12 as blank. To each well of the dilution plate, 100 μl of the red blood cells suspension was added. The plate was incubated for 1 h at 37°C. After incubation, the plate was centrifuged at 500 × g for 10 min and 100 μl of the supernatant was transferred to a clean 96-well plate (F-bottom, PS, 655101, Greiner). The absorbance was measured at 540 nm using an Infinite M1000 PRO plate reader (Tecan) and corrected by the measurements from the untreated wells. The lysis of each peptide concentration was expressed relative to the lysis control (set as 100% lysis). The hemolysis assay was performed in biological triplicates."}, "HeLa cells": {"test_system": "HeLa cells", "assay": "In vitro toxicity assay (MTT), HeLa", "type": "cell-based, human", "experimental": "(§2) HeLa epithelioid cervix carcinoma cells (originally purchased: 93021013, Sigma Aldrich) and HEK 293 human embryonic kidney (originally purchased: 85120602, Sigma Aldrich) were routinely cultivated in Dulbecco’s MEM high glucose (DMEM, with L-glutamine, without phenol red, 1-26P32, Bioconcept, Allschwil, CH), supplemented with 10% fetal bovine serum (heat inactivated, sterile filtered, F9665, Sigma Aldrich) and 100 IU ml^−1/100 μg ml^−1 Penicillin/streptomycin (4-01F00, Bioconcept) at 37°C with 5% CO2. Cells were split at a confluency of ≤ 90% (every 3 to 4 days) and maintained for max. 10 passages before a fresh aliquot of cells were seeded. […] The cell concentration was determined using a Countess 2 device (Thermo Fisher Scientific) and approx. 5000 (HeLa) or 25,000 (HEK 293) cells were seeded into wells of a 96-well plate (F-bottom, PS, 655180, Greiner) together with 100 μl DMEM. […] For each dilution series, the IC50 value was determined by computing a weighted n-parameters logistic regression using the “nplr” package in R (https://CRAN.R-project.org/package=nplr). […]"}, "HEK 293 cells": {"test_system": "HEK 293 cells", "type": "cell-based, human", "details": "MTT, 24 h, 37°C, triplicates, read-out: Toxicity IC50", "experimental": "as §2"}},
  "note": "Where “and” joins values, the source holds several entries; their conditions need not be identical. Equal entries are not always repeated. Where no end group is shown, it is not given here.",
  "data": [
    {"substance": "Bac7: 60 amino acid long linear peptide first isolated from bovine neutrophils", "values": [
      {"measurement": "activity against species of Gram-negative Enterobacteriaceae", "setting": "bacteria", "value": "high activity"},
      {"measurement": "damage of bacterial membranes at its MIC", "setting": "bacterial membranes", "value": "not damage bacterial membranes"}
    ]},
    {"substance": "RRIRPRPPRLPRPRPRPLPFPRP [Bac7_1-23]", "values": [
      {"measurement": "MIC", "setting": "E. coli ATCC 25922", "value": 2.8, "unit": "µM"},
      {"measurement": "antimicrobial activity against the SbmA transporter knockout strain", "setting": "E. coli BW25113 ΔsbmA", "value": "largely inactive"},
      {"measurement": "MIC", "setting": "E. coli BW25113 ΔsbmA; MHB II, 18 h, 37°C, averaged (n>3)", "value": 52.1, "unit": "µM"},
      {"measurement": "MIC", "setting": "E. coli BW25113", "value": 7.4, "unit": "µM"},
      {"measurement": "MIC", "setting": "E. coli TOP10 [1]", "value": 4.6, "unit": "µM"},
      {"measurement": "MIC50", "setting": "[2]", "value": 7.5, "unit": "µM"},
      {"measurement": "PI-positive cells", "setting": "E. coli TOP10 [3]", "value": "~ 1%"},
      {"measurement": "cells that retained GFP levels", "setting": "E. coli TOP10 [3]", "value": "~ 99%"},
      {"measurement": "Hemolysis of mouse red blood cells", "setting": "mouse red blood cells; 1xMIC (MIC measured for E. coli ATCC 25922)", "value": "< 4% and 2.1%"},
      {"measurement": "Hemolysis of mouse red blood cells", "setting": "mouse red blood cells; 4xMIC (MIC measured for E. coli ATCC 25922)", "value": "< 7% and 6.4%"},
      {"measurement": "IC50", "setting": "HeLa cells; HeLa, MTT, 24 h, 37°C, triplicates", "value": 1460, "unit": "µM"},
      {"measurement": "therapeutic index (TI), Toxicity/MIC", "setting": "HeLa cells; IC50 HeLa divided by MIC50 from clinical isolates", "value": 195},
      {"measurement": "IC50", "setting": "HEK 293 cells", "value": 1970, "unit": "µM"}
    ]}
  ]
}
